In patent publication US4952607A, “Copper complex for treating cancer” (priority 1986, dated 1990):
Where “and” joins values, the source holds several entries; their conditions need not be identical. Identical values can stand only once. Entries after “also recorded” stand apart in the source; their conditions may differ. Like-named read-outs stand apart in the source and are kept apart here.

Legend:
[1] = Acute toxicity LD50, subcutaneous, mice
[2] = Acute toxicity LD50, subcutaneous, rats
[3] = Body weight of tumor bearing CBA mice (Ehrlich carcinoma); type: in vivo
[4] = tested on: neuroblastoma cell clone NBP2; type: cell-based, mouse; conditions: 3 days; for % differentiation: control 8.0 ± 3.7; for % differentiation / Cell number ×10^5: mean ± S.D.; for Cell number ×10^5: control 17.1 ± 1.9
Protocol: The neuroblastoma cell clone NBP2 provided by Dr. K. N. Prasad (University of Colorado), is maintained according to the procedure of Prasad and Hsie, Prasad, K. N. and Hsie, A. N., Nature New Biol. 233:141 (1971), hereby incorporated by reference. Cells are grown as a monolayer in 75 cm^2 Falcon plastic tissue culture flasks containing F-12 medium supplemented with 10% gamma globulin-free new born calf serum, penicillin (100 U/ml) and streptomycin (100 μg/ml). Cultures are maintained in a humidified atmosphere of 5% CO2 in a water jacketed incubator at 37° C. […] Only exponentially growing cells are used in the experiment. […] Medium, serum, antibiotics, and pancreatin are purchased from Grand Island Biological Company. […] Fifty-thousand cells were seeded in each […] plastic petri dish containing 5 ml of the growth medium. Cells are treated with CuDIPS 24 hours after seeding. CuDIPS is dissolved in ethanol to give a final concentration of 10, 25, or 50 μg/ml of copper compound in the medium. The concentration of ethanol in the medium is kept constant at 1% in all the treated and control dishes. Culture dishes containing 1% ethanol serve as controls. One day after the start of treatments and daily afterwards, fresh drug and medium are provided in each dish. To avoid possible degradation, CuDIPS is dissolved in ethanol immediately before use. The experiment is done in triplicate. Three days after the initial treatments the number of cells and percent differentiation of cells are scored in each dish. Four hundred cells per culture dish from at least three different regions are examined with a Leitz Divert phase contrast microscope. Cells with one or more processes at least twice as long as the soma diameter (processes usually longer than 50 microns) are scored as differentiated. To count the number of cells, cells are harvested with Pancreatin and the number of cells in each dish is determined by counting cells in a hemocytometer.

[5] = rats, subcutaneous; reported; cited from earlier work
[6] = O2^- scavenging / SOD activity, DMSO-KO2 nitro blue tetrazolium method; type: biochemical; conditions: mean
Protocol: The SOD activity of Orgotein and of tumor homogenates is assayed by the method of Beauchamp and Fridovich. Reaction mixtures contain 0.05M potassium phosphate buffer (pH 7.8) with 10^-3 M diethylenetriaminepentaacetic acid, 10^-4 M of xanthine, 5.6×10^-5 M of nitro blue tetrazolium, 10^-3 units of xanthine oxidase and 1 unit of catalase. Addition of 5×10^-3 M NaCN to this mixture inhibits CuZnSOD activity and allows the measurement of the activity of the cyanid insensitive MnSOD alone. The rate of blue formazan formation is measured by following the change of absorbance at 560 nm with a Cary Model 15 spectrophotometer. The sensitivity of the assay was such that 1 unit equaled 14±1 ng of pure erythrocyte SOD. The amount of protein in each sample is assayed using a conventional method. […] After bones and muscles are removed, the tumor tissue is rinsed and minced in 0.05 M potassium phosphate buffer (pH 7.8) and homogenized in a motor-driven Teflon pestle homogenizer. […] CuDIPS is dissolved in 10% Tween 80-saline. This alternate method is chosen due to the length of previous procedure and lipid insolubility of some of the reactants of the previous assay. Free O2^- is released when DMSO-KO2 is added to an aqueous solution. […] The formation of blue formazan is determined by recording the final absorbance of the assay mixture at 560 nm with a Cary Model 15 spectrophotometer. […]

Sarcoma 180 cells [7] = test: Tumor growth and survival of CF1 mice implanted with Sarcoma 180 cells; type: in vivo
Protocol: Autopsies are performed on all dead animals.

Sarcoma 180 cells [8] = test: Viability of Sarcoma 180 cells incubated in Orgotein; type: cell-based, mice; conditions: 2.5×10^7 cells/ml; 0.8 mg/ml, one hour
Protocol: Table II and Chart II show the survival times of these tumor bearing mice; there is a 23% increase in mean survival time in the Orgotein treated group (p less than 0.1). Viability of the Sarcoma 180 cells (2.5×10^7 cells/ml) is unchanged when they are incubated in 0.8 mg/ml Orgotein for one hour, showing that the effect of Orgotein is probably not due to cytotoxicity.

[9] = SOD activity, xanthine-xanthine oxidase nitro blue tetrazolium method (Beauchamp and Fridovich); type: biochemical
Protocol: Orgotein, a generic name for CuZnSOD derived from bovine liver, is obtained from Diagnostic Data Incorporated, Mountain View, California. It is 98% pure CuZnSOD isolated from bovine liver and had 3,300 units of pure erythrocyte SOD activity/mg protein when assayed by the method of Beauchamp, C. and Fridovich, I., Superoxide Dismutase: Improved Assays and an Assay Applicable to Acrylamide Gel., Anal. Biochem. 44:276-287 (1971), hereby incorporated by reference. Orgotein was dissolved in USP grade nonpyrogenic sterile saline.
The SOD activity of Orgotein and of tumor homogenates is assayed by the method of Beauchamp and Fridovich. Reaction mixtures contain 0.05M potassium phosphate buffer (pH 7.8) with 10^-3 M diethylenetriaminepentaacetic acid, 10^-4 M of xanthine, 5.6×10^-5 M of nitro blue tetrazolium, 10^-3 units of xanthine oxidase and 1 unit of catalase. […] The rate of blue formazan formation is measured by following the change of absorbance at 560 nm with a Cary Model 15 spectrophotometer. […] O2^- scavenging ability of CuDIPS is determined by a similar assay method; the only difference is that dimethyl sulfoxide (DMSO) solvated potassium superoxide (KO2) is used to generate O2^- instead of xanthine and xanthine oxidase. […] The formation of blue formazan is determined by recording the final absorbance of the assay mixture at 560 nm with a Cary Model 15 spectrophotometer. […]

[10] = 50 μg/ml, listed as Cu(II)(3,5-diisopropylsalicylate)2

## CC(=O)Oc1ccccc1C(=O)[O-].CC(=O)Oc1ccccc1C(=O)[O-].CC(=O)Oc1ccccc1C(=O)[O-].CC(=O)Oc1ccccc1C(=O)[O-].[Cu+2].[Cu+2] [Cu(II)2 (aspirinate)4]
[1]
  LD50: greater than 320 mg/kg
[2]
  LD50: 760 mg/kg

## O=S(=O)([O-])[O-].[Cu+2] [CuSO4, copper sulfate]
[3]; CuSO4 0.5 mg in 0.1 ml, 5 days
  body weight change: continuous loss of weight

## CC(C)c1cc(C(=O)O)c(O)c(C(C)C)c1 [DIPS, diisopropylsalicylic acid]
[3]; DIPS i.m., single doses
  body weight change: loss of body weight

## CC(C)c1cc(C(=O)[O-])c(O)c(C(C)C)c1.CC(C)c1cc(C(=O)[O-])c(O)c(C(C)C)c1.[Cu+2] [CuDIPS, Cu(II) (3,5-diisopropylsalicylate)2]
[3]; mouse, in vivo
  body weight change: no weight loss was observed
[4]; 10 μg/ml, listed as Cu(II)(3,5-diisopropylsalicylate)2
  % differentiation: 7.4 ± 2.6%
[4]; 10 μg/ml, p less than 0.05
  Cell number ×10^5: a small reduction in the number of cells per culture dish
[4]; 10 μg/ml, p less than 0.05, listed as Cu(II)(3,5-diisopropylsalicylate)2
  Cell number ×10^5: 12.7 ± 1.4 ×10^5
[4]; 25 μg/ml
  cell population relative to control: less than half of the cell population
  % differentiation: 22.4±2.6%
[4]; 25 μg/ml, listed as Cu(II)(3,5-diisopropylsalicylate)2
  % differentiation: 22.4 ± 2.6%
[4]; 25 μg/ml, per culture dish
  Cell number ×10^5: 7.1±1.2 ×10^5
[4]; 25 μg/ml, per culture dish, listed as Cu(II)(3,5-diisopropylsalicylate)2
  Cell number ×10^5: 7.1 ± 1.2 ×10^5
[4]; 50 μg/ml
  morphology of treated cells: morphologically resembles mature neural cells
  % differentiation: 74.2±4.9%
  Cell number ×10^5: a remarkable reduction in cell population
[4]; [10]
  % differentiation: 74.2 ± 4.9%
  Cell number ×10^5: 1.4 ± 0.6 ×10^5
[5]
  LD50: 240 mg/kg and 240 ± 33 mg/kg
[6]
  SOD activity: 17,400±1,800 units of SOD activity/mg of the compound

## Orgotein: generic name for CuZnSOD derived from bovine liver
Sarcoma 180 cells [7]; 1.2 mg at 1 hour after implantation, after 27 days
  tumor growth curve vs control after 27 days: the growth curves are the same
Sarcoma 180 cells [7]; 1.2 mg at 1 hour after implantation, p less than 0.05 between 11 and 27 days
  reduction in tumor size: reduction of tumor size; also recorded: a reduction in tumor size is observed
Sarcoma 180 cells [7]; 1.2 mg i.m. at 1 hour
  Maximum Survival Time: 90 days
  Median Survival Time: 53 days
Sarcoma 180 cells [7]; 1.2 mg i.m. at 1 hour, ± standard error, p less than 0.1
  Mean Survival Time: 53 ± 5 days
Sarcoma 180 cells [7]; Orgotein treated group, p less than 0.1
  increase in mean survival time: 23%
Sarcoma 180 cells [7]; local injection, Sarcoma 180
  effect on tumor growth and survival: a slight effect on the tumor growth and survival
Sarcoma 180 cells [7]; same dose given 5 or 10 days after transplantation
  tumor growth / survival, delayed treatment: no significant decrease in tumor growth or increase in survival is observed
Sarcoma 180 cells [8]
  Viability of the Sarcoma 180 cells: unchanged
[9]; method of Beauchamp and Fridovich
  SOD activity of Orgotein as obtained: 3,300 units of pure erythrocyte SOD activity/mg protein
[9]; xanthine-xanthine oxidase method
  SOD activity: 49,500±300 units of SOD activity/mg protein
